Experimental data reported in patent US20060100235A1, “Pharmaceutical use of substituted 1,2,4-triazoles” (Novo Nordisk A/S, priority 2003, published 2006).

Target: T1, h-11βHSD1 (Homo sapiens, UniProt P28845)
T1 construct: made in house
Test: 11βHSD1 enzyme assay (scintillation proximity assay)
Assay type: biochemical
Details: extract of yeast transformed with h-11βHSD1; 120 nM 3H-cortisone, 4 mM β-NADPH; 60 min at 30° C.
Procedure: Pharmacological Methods 11βHSD1 enzyme assay Materials
^3H-cortisone and anti-rabbit Ig coated scintillation proximity assay (SPA) beads were purchased from Amersham Pharmacia Biotech, β-NADPH was from Sigma and rabbit anticortisol antibodies were from Fitzgerald. An extract of yeast transformed with h-11βHSD1 (Hult et al., FEBS Lett, 441, 25 (1998)) was used as the source of enzyme. The test compounds were dissolved in DMSO (10 mM). All dilutions were performed in a buffer containing 50 mM TRIS-HCl (Sigma Chemical Co), 4 mM EDTA (Sigma Chemical Co), 0.1% BSA (Sigma Chemical Co), 0.01% Tween-20 (Sigma Chemical Co) and 0.005% bacitracin (Novo Nordisk A/S), pH=7.4. Optiplate 96 wells plates were supplied by Packard. The amount of ^3H-cortisol bound to the SPA beads was measured on TopCount NXT, Packard.
h-11βHSD1, 120 nM ^3H-cortisone, 4 mM β-NADPH, antibody (1:200), serial dilutions of test compound and SPA particles (2 mg/well) were added to the wells. The reaction was initiated by mixing the different components and was allowed to proceed under shaking for 60 min at 30° C. […] Data was analysed using GraphPad Prism software.

T1 sequence (P28845 whole entry): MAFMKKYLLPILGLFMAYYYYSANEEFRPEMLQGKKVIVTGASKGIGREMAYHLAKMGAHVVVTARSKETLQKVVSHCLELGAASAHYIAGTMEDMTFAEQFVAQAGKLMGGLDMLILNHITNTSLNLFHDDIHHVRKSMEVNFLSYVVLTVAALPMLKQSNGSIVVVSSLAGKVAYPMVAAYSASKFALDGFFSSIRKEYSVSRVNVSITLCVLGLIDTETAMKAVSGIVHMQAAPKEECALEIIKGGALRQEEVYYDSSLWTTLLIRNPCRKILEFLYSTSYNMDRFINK

IC50	Structure (SMILES)
160 nM	CCn1c(SCC(=O)N2CCCc3ccccc32)nnc1-c1ccccc1Br [Comp A, 2-[5-(2-Bromo-phenyl)-4-ethyl-4H-[1,2,4]triazol-3-ylsulfanyl]-1-(3,4-dihydro-2H-quinolin-1-yl)-ethanone]
190 nM	Cn1c(SCC(=O)c2ccccc2)nnc1C1CCCCC1 [Comp B, 2-(5-Cyclohexyl-4-methyl-4H-[1,2,4]triazol-3-ylsulfanyl)-1-phenyl-ethanone]
